{
  "source": "patent US11351151B2",
  "about": "“Compound having anticancer activity and preparation method and application” (3D Medicines (Beijing) Co., Ltd., priority 2016, dated 2022)",
  "origin": "cited, not measured here",
  "details": "liver cancer patients, phase III; cited from earlier work",
  "data": [
    {"smiles": "CNC(=O)c1cc(Oc2ccc(NC(=O)Nc3ccc(Cl)c(C(F)(F)F)c3)cc2)ccn1", "note": "[Sorafenib]", "values": [
      {"measurement": "ORR (overall response rate)", "result": 6.9, "unit": "%"},
      {"measurement": "TTP (time to progression)", "result": 4.0, "unit": "months"}
    ]}
  ]
}
